The structures appear in SMILES notation.

One test deals with pS6RP in RKO cells. The test can be described thus: In Cell Western (ICW) assay, pS6RP in RKO cells. It counts as cell-based. As to conditions: Homo sapiens, 3 h treatment. The protocol: (§1) Cell lines A375, A2058 and RKO obtained from the ATCC as provided above, were grown, and after attaining ˜80% confluency were trypsinized, centrifuged and resuspended in fresh media. The cells were seeded at the specified density (20,000 to 50,000) in a 96-well format black-well clear bottom plate (Corning) and incubated overnight at 37° C. in a 5% CO2 incubator. The next day, compound dilutions of test compounds were prepared in 100% DMSO followed by dilutions in respective media. Treatment of test compounds was performed for 3 h at 37° C. in 5% CO2 incubator. Following 3 h drug treatment, the conditional media was discarded and the cells were washed once with cPBS (PBS containing 0.1% magnesium chloride hexahydrate and 0.1% anhydrous calcium chloride) and fixed with 4% paraformaldehyde in cPBS for 1 h at rt. After fixing, the cells were given three washes using cPBST (cPBS containing 0.1% Triton™ X-100 reagent) and then blocked using blocking solution (5% skimmed milk powder or 5% BSA prepared in cPBST) for 2 h at rt with shaking at 300 rpm. The cells were again washed thrice with cPBST and incubated with primary antibody phospho-p44/42 MAPK(Erk1/2)(Thr202/204) antibody (Cell Signaling, Catalog # 9101L), phospho S6 ribosomal protein (Cell Signaling, Catalog #4858L), phospho AKT (Thr 308) (Cell Signaling, Catalog #9275) or phospho AKT (Ser 473) (Cell Signaling, Catalog #4060L) in specified dilutions (1:500-1:2500), prepared in respective blocking solutions, in a racker overnight at 4° C. The next day, the cells were washed with 1× Delfia® wash buffer (4×1 wash) and incubated with secondary antibody (Delfia®-Eu-N1 labeled anti-rabbit antibody; PerkinElmer, Catalog #AD0105; dilutions: 1:2000 to 1:6000 in Delfia® assay buffer (PerkinElmer, Catalog #1244-111)) for 2 h at rt in the dark at 300 rpm. The cells were then given four washes with 1× Delfia® wash buffer and incubated with Wallac Delfia® Enhancement solution (100 μL; PerkinElmer, Catalog #1244-105) for 20 min at rt in the dark at 300 rpm. The fluorescence emission was then read at 615 nm with an excitation wavelength of 340 nm using a Victor V5 Fluorometer (Perkin Elmer, US). The cells were then washed once with 1×cPBS and incubated with 100 μL of 0.5 mg/mL of Hoechst 33258 dye prepared in cPBS and read at 460 nm with 355 nm excitation, thereby evaluating the correction factor.
(§2) The % inhibition for the test compounds of formula (I) (new chemical entities (NCEs)) was calculated keeping DMSO control as 0% and the IC50 values were determined using sigmoidal dose response curve fit in GraphPad Prism® v5 software.

The target in a further test is T1, mTOR kinase (Homo sapiens, UniProt P42345).
T1 construct: purchased Millipore, US
T1 sequence (P42345 1362-2549 limits assumed): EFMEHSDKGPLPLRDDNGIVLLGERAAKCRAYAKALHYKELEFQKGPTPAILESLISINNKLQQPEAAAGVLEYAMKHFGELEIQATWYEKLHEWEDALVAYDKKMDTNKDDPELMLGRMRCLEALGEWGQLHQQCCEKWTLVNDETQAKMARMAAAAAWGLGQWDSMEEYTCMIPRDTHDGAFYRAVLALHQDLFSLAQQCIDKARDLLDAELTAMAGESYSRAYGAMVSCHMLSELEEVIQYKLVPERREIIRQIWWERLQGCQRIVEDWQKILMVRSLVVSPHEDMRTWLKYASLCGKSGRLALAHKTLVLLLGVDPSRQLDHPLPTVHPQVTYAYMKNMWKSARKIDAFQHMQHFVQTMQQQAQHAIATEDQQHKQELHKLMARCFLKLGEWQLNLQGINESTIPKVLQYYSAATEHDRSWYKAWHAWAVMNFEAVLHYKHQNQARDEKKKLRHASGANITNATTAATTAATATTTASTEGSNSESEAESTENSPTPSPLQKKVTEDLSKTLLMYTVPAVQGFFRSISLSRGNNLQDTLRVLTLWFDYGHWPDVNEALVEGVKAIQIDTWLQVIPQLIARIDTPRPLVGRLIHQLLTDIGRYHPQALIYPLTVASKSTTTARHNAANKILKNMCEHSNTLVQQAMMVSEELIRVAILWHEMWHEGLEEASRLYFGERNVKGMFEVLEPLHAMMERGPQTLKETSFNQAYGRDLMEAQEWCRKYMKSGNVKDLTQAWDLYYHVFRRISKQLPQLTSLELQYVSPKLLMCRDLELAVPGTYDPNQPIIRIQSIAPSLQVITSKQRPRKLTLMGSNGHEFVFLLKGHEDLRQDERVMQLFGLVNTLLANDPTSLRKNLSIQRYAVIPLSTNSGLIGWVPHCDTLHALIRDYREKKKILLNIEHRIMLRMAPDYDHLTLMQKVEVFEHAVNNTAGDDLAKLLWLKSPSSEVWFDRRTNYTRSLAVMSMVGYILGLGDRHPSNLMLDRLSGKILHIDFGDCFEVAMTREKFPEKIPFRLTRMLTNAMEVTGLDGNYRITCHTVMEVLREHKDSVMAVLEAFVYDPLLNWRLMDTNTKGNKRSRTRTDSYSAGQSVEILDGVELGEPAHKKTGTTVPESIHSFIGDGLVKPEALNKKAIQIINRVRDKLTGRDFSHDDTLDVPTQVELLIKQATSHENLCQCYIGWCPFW
Kind of test: mTOR kinase TR-FRET assay. Format: biochemical. The essentials:
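TR-FRET with ULight-p70 S6K (Thr 389) peptide (50 nM) and 20 μM ATP in 50 mM HEPES pH 7.5, 1 mM EGTA, 3 mM MnCl2; compound pre-incubated with enzyme before substrate addition, reaction at rt, EDTA-stopped. Eu anti-phospho antibody read 665/615 nm; IC50 from sigmoidal dose-response fit.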
On the technique in general: TR-FRET usually uses a lanthanide donor and a delayed reading to cut background.

The next test concerns RKO cells. Kind of test: XTT assay for cell viability, RKO cells. Format: cell-based. The following applies: Homo sapiens, 72 h. Summed up: (§3)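 RKO and A375 cells seeded at 1000-2000/well overnight, then exposed to compound for 72 h at 37° C., 5% CO2. XTT (1 mg/ml)/PMS (25 μM) added for 2-3 h; absorbance at 450 nm. Growth relative to DMSO control (100%); GI50 from sigmoidal dose-response fit.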
(Formazan colour is commonly taken as a measure of viable cells.)

Another test concerns A375 cells. The test can be described thus: XTT assay for cell viability, A375 cells. It counts as cell-based. As to conditions: Homo sapiens, A-375, 72 h. Summed up: as §3
For a further test, the system named is pERK in A375 cells. Kind of test: In Cell Western (ICW) assay, pERK in A375 cells. As to conditions: Homo sapiens, A-375, 3 h treatment. It counts as cell-based. Summed up:
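RKO or A375 cells were exposed to compounds for 3 h at 37 °C, then fixed and stained in-cell with antibodies to pERK1/2 (T202/Y204), pS6RP or pAKT T308, followed by a Eu-labelled secondary. Time-resolved fluorescence (340/615 nm) was normalized to Hoechst, and IC50 values were fitted sigmoidally against DMSO as 0% inhibition.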

The next test deals with pERK in RKO cells. The test can be described thus: In Cell Western (ICW) assay, pERK in RKO cells. It counts as cell-based. The following applies: Homo sapiens, 3 h treatment. The method, then: as §1, §2
In another test the target is T2, B-RAFV600E (Homo sapiens, UniProt P15056, V600E).
T2 construct: purchased Millipore, USA 14-557
T2 sequence (P15056 416-766 V600E limits assumed): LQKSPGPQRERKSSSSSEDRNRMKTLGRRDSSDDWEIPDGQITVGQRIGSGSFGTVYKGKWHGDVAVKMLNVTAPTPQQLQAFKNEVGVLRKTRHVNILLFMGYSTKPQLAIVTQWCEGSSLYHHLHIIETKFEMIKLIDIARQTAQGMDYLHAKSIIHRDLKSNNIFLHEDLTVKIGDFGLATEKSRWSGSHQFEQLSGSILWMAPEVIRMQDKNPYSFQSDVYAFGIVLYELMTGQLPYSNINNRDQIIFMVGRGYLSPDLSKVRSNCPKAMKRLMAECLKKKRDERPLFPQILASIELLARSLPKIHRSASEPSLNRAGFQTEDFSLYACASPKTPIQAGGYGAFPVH
The test can be described thus: B-RAFV600E radiometric assay. It counts as biochemical. As to conditions: read-out: Kinase assay B-Raf. The essentials:
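B-RAFV600E was preincubated 45 min at rt with compound in 1% DMSO. MEK-K97M (0.5 μg), 5 μM final cold ATP and [γ-32P]ATP were then added for 2 h at rt. Phosphorylated MEK was captured on P81 paper and scintillation-counted; IC50 came from a sigmoidal dose-response fit.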

For the next test, the system named is pAKT (T308) in RKO cells. The test can be described thus: In Cell Western (ICW) assay, pAKT-T308 in RKO cells. It counts as cell-based. As to conditions: Homo sapiens, 3 h treatment. The protocol: as §1, §2
Another test addresses T3, PI3Kα (Homo sapiens, UniProt P42336).
T3 construct: made in house; host or cells: SF9 cells
Kind of test: PI3 Kinase alpha TR-FRET assay. It counts as biochemical. The essentials:
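Purified Sf9-expressed p110/p85α (5 ng) was pre-incubated with compound and PIP2 at rt, then ATP was added (PIP2 and ATP both 40 μM) for a 30 min reaction. PIP3 was detected by TR-FRET displacement of biotin-PIP3, and IC50 was taken from dose-response curves of the 665/615 nm emission ratio.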

T3 sequence (P42336 whole entry, species assumed): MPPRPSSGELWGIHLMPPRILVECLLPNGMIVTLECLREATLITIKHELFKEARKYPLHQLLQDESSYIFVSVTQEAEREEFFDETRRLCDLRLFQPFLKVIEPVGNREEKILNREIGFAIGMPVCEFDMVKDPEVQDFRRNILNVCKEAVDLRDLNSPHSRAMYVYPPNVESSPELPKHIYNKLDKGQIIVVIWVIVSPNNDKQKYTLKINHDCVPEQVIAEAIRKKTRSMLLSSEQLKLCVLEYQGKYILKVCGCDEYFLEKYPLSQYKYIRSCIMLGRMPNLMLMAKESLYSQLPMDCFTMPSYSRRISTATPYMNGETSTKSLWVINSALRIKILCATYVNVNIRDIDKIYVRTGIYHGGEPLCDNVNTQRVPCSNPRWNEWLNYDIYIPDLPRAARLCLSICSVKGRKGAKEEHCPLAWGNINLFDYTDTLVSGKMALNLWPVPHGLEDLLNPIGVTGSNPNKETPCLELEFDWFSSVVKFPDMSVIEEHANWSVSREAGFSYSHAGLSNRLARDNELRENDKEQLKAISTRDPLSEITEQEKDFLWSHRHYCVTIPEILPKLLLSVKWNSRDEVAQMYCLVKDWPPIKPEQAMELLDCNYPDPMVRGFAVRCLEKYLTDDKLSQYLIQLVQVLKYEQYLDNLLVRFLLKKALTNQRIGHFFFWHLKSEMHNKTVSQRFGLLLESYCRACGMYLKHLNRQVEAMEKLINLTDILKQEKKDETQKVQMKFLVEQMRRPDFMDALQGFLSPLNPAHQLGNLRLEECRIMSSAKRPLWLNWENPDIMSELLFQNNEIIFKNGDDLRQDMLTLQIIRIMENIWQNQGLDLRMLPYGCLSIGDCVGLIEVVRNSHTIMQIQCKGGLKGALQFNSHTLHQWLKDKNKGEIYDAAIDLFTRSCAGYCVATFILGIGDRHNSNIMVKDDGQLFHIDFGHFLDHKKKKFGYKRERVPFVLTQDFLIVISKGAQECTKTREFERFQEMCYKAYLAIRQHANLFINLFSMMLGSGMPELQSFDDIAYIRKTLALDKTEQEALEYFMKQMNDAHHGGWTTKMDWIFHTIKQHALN
T3 sequence (P27986 whole entry partner, species assumed): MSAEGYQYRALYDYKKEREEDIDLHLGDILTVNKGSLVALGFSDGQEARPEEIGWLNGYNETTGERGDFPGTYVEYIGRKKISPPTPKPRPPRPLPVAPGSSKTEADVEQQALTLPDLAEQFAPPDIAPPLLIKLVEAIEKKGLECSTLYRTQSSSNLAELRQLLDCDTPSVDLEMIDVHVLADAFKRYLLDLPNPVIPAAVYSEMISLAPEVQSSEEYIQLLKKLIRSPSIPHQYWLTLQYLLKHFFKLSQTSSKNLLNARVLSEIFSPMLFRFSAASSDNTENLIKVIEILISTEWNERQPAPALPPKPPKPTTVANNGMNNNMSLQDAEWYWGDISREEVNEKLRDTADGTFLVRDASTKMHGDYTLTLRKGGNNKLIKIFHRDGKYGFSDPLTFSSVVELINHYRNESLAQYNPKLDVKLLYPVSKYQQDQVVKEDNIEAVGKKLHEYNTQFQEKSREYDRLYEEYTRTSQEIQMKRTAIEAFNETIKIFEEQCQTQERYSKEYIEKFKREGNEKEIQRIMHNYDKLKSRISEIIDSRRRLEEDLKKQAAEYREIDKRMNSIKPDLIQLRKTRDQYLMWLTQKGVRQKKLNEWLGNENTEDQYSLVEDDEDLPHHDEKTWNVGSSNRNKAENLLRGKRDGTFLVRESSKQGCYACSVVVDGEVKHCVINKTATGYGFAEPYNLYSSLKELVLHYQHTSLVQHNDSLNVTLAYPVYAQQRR

Turning to `CC(C)Oc1cc(-c2cccc(NS(=O)(=O)CCCF)c2F)cc2c(N3CCOC[C@H]3C)nc(-c3ccc(N)nc3)nc12` [Example 63, (R)-N-(3-(2-(6-aminopyridin-3-yl)-8-isopropoxy-4-(3-methylmorpholino)quinazolin-6-yl)-2-fluorophenyl)-3-fluoropropane-1-sulfonamide], the IC50 fell in the range of 100 to 1000 nM in the test with pS6RP in RKO cells; 1 to 100 nM on mTOR kinase; 100 to 1000 nM in the test on RKO cells; 1 to 100 nM in the test with A375 cells; 1 to 100 nM in the test on pERK in A375 cells; 1 to 100 nM in the test with pERK in RKO cells. Also, the IC50 on B-RAFV600E was in the range of 1 to 100 nM.
Take `C[C@@H]1COCCN1c1nc(-c2cnc(N)nc2)nc2c(N3CCOCC3)cc(-c3cccc(NS(=O)(=O)CCCF)c3F)cc12` [Example 73, (R)-N-(3-(2-(2-aminopyrimidin-5-yl)-4-(3-methylmorpholino)-8-morpholinoqulnazolin-6-yl)-2-fluorophenyl)-3-fluoropropane-1-sulfonamide]: the IC50 is 100 to 1000 nM in the test with pS6RP in RKO cells; 1 to 100 nM at mTOR kinase; 100 to 1000 nM with RKO cells; 1 to 100 nM in the test on A375 cells; 1 to 100 nM with pERK in A375 cells; 1 to 100 nM in the test on pERK in RKO cells. Moreover, the IC50 at B-RAFV600E lay in the range of 1 to 100 nM.
Take `Nc1ncc(-c2nc(N3CCOCC3)c3nc(-c4cccc(NS(=O)(=O)CCCF)c4F)ccc3n2)c(C(F)(F)F)n1` [Example 100, N-(3-(2-(2-amino-4-(trifluoromethyl)pyrimidin-5-yl)-4-morpholinopyrido[3,2-d]pyrimidin-6-yl)-2-fluorophenyl)-3-fluoropropane-1-sulfonamide]: the IC50 was 100 to 1000 nM in the test with RKO cells; 100 to 1000 nM with pAKT (T308) in RKO cells; 100 to 1000 nM with A375 cells; 100 to 1000 nM with pERK in A375 cells; 1 to 100 nM in the test with pERK in RKO cells; 1 to 100 nM at B-RAFV600E. For the same compound, the IC50 on PI3Kα is 1 to 100 nM.
With `Nc1ncc(-c2nc(N3CCOCC3)c3nc(-c4cccc(NS(=O)(=O)CCCF)c4F)ccc3n2)cc1Cl` [Example 103, N-(3-(2-(6-amino-5-chloropyridin-3-yl)-4-morpholinopyrido[3,2-d]pyrimidin-6-yl)-2-fluorophenyl)-3-fluoropropane-1-sulfonamide], the IC50 with RKO cells lay in the range of 1000 to 10000 nM; in the test on pAKT (T308) in RKO cells, 1000 to 10000 nM; in the test on pERK in A375 cells, 100 to 1000 nM; at B-RAFV600E it was 1 to 100 nM; against PI3Kα it was 100 to 1000 nM.
Take `Nc1ncc(-c2nc(N3CCOCC3)c3nc(-c4cccc(NS(=O)(=O)CCCF)c4F)ccc3n2)cc1F` [Example 105, N-(3-(2-(6-amino-5-fluoropyridin-3-yl)-4-morpholinopyrido[3,2-d]pyrimidin-6-yl)-2-fluorophenyl)-3-fluoropropane-1-sulfonamide]: the IC50 in the test with RKO cells fell in the range of 1000 to 10000 nM; in the test with pAKT (T308) in RKO cells, 1000 to 10000 nM; in the test on A375 cells it was 100 to 1000 nM; in the test with pERK in A375 cells it was 100 to 1000 nM; with pERK in RKO cells it was 100 to 1000 nM; at B-RAFV600E, 1 to 100 nM. On PI3Kα, this compound gave an IC50 of 1 to 100 nM.
Consider `Cc1nc(N)ncc1-c1nc(N2CCOCC2)c2nc(-c3cccc(NS(=O)(=O)CCCF)c3F)ccc2n1` [Example 109], for which the IC50 in the test with pAKT (T308) in RKO cells lay within 1000 to 10000 nM; in the test with A375 cells it was 100 to 1000 nM; in the test on pERK in A375 cells it was 1 to 100 nM; with pERK in RKO cells it was 100 to 1000 nM; at B-RAFV600E, 1 to 100 nM; on PI3Kα, 1 to 100 nM.
As for `CNC(=O)Nc1ccc(-c2nc(N3CCOCC3)c3nc(-c4cccc(NS(=O)(=O)CCCF)c4F)ccc3n2)cc1` [Example 139, 3-fluoro-N-(2-fluoro-3-(2-(4-(3-methylureido)phenyl)-4-morpholinopyrido[3,2-d]pyrimidin-6-yl)phenyl)propane-1-sulfonamide], the IC50 was 1 to 100 nM against mTOR kinase; 100 to 1000 nM with RKO cells; 100 to 1000 nM with pAKT (T308) in RKO cells; 100 to 1000 nM in the test with A375 cells; 100 to 1000 nM in the test on pERK in A375 cells; 100 to 1000 nM in the test with pERK in RKO cells. At B-RAFV600E, the IC50 was 1 to 100 nM.

The values above are taken from patent US9499495B2, “Quinazolines and azaquinazolines as dual inhibitors of RAS/RAF/MEK/ERK and PI3K/AKT/PTEN/mTOR pathways” (Asana Biosciences, LLC, priority 2013, dated 2016).
